The values that follow come from PMC9822396 (Molecules, 2022).

For data set [1], the target named is T1, BChE (Equus caballus, UniProt P81908).
T1 construct: BChE from equine serum; purchased Sigma-Aldrich; host or cells: equine serum
Kind of data set: BChE inhibition (Ellman method). It is filed as biochemical, equine. The following applies: read-out: Residual Activity at 10 µM (%) BChE. The method, then: (§1) All other chemicals were of reagent grade.
(§2) hMAO-A and -B activities were determined using a continuous spectrophotometric method, as described previously. […] AChE and BChE activities were assayed as described by Ellman et al., with slight modification. Reactions were performed using AChE and BChE in the 0.5 mL reaction mixtures including 0.5 mM substrate (ATCI and BTCI, respectively) and color reagent (DTNB). […] Reaction rates are expressed as changes in absorbance per min.. Inhibitory activities of AChE and BChE were measured after preincubating enzyme with inhibitors for 15 min before adding DTNB and each substrate. […]
A general note: Ellman's reagent forms a yellow product with free thiols.

The target in data set [2] is T2, BACE1 (Homo sapiens, UniProt P56817).
T2 construct: purchased Sigma-Aldrich
T2 sequence (P56817 46-501): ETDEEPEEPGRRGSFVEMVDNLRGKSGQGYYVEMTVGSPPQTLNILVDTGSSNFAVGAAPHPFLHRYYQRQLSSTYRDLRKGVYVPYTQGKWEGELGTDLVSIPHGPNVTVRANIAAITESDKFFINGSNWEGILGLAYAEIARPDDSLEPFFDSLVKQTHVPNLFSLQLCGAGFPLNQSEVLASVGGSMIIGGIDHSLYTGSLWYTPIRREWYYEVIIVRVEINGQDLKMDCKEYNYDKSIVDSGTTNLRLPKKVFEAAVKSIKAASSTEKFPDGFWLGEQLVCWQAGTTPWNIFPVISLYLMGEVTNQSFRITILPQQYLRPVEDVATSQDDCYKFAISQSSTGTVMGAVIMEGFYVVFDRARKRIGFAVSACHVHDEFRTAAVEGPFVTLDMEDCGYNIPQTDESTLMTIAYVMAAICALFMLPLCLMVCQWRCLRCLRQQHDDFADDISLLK
Kind of data set: BACE1 inhibition (fluorescent activity detection kit). As to conditions: read-out: Residual Activity at 10 µM (%) BACE1. It is filed as biochemical.

The test system of data set [3] is MDCK cells. Kind of data set: Cytotoxicity, CCK-8 cell viability, MDCK. It is filed as cell-based, canine. The following applies: normal cell line, up to 50 µM, 24 h. The text has this:
(§3) Dimethyl sulfoxide (DMSO) and 2-mercaptoethanol (2-ME) were obtained from Sigma Aldrich. Cell counting kit-8 (CCK-8) was obtained from Dojindo Laboratories (Kumamoto, Japan). Madin-Darby canine kidney (MDCK; KCLB 10034) cells, human acute promyelocytic leukemia (HL-60; KCLB 10240) cells, and human neuroblastoma cells (SH-SY5Y; KCLB 22266) were purchased from the Korean Cell Line Bank (KCLB, Seoul, Republic of Korea).
(§4) Passages were used between 10 and 30. Following trypsinization, MDCK (1 × 10^4), HL-60 (5 × 10^4), and SH-SY5Y (5 × 10^4) cells were seeded in 96-well plates and treated with 1, 3, 10, 30 and 50 µM of each inhibitor. The plates were then incubated for 24 h at 37 °C with 5% CO2, and cell viability was determined by the CCK-8 and by measuring the optical density at 450 nm using a microplate reader (Versa Max, Molecular Devices, Sunnyvale, CA, USA). The cell viability was expressed as % by comparing the absorbance of the sample to that of the control. Statistical differences between groups were analyzed by ANOVA using IBM SPSS statistics 27 and probability values (p-values) less than 0.05 were marked as significant values.

Data set [4] addresses T3, AChE (Electrophorus electricus, UniProt O42275).
T3 construct: purchased Sigma-Aldrich
Kind of data set: AChE inhibition (Ellman method). It is filed as biochemical. As to conditions: read-out: Residual Activity at 10 µM (%) AChE. As for the experimental part: as §1, §2

In data set [5] the test system is HL-60 cells. Kind of data set: Cytotoxicity, CCK-8 cell viability, HL-60. It is filed as cell-based, human. The following applies: cancer cell line, up to 50 µM, 24 h.
From the text: as §3, §4

In data set [6] the target is T4, hMAO-B (Homo sapiens, UniProt P27338).
T4 construct: purchased Sigma-Aldrich
T4 sequence (P27338 1-520): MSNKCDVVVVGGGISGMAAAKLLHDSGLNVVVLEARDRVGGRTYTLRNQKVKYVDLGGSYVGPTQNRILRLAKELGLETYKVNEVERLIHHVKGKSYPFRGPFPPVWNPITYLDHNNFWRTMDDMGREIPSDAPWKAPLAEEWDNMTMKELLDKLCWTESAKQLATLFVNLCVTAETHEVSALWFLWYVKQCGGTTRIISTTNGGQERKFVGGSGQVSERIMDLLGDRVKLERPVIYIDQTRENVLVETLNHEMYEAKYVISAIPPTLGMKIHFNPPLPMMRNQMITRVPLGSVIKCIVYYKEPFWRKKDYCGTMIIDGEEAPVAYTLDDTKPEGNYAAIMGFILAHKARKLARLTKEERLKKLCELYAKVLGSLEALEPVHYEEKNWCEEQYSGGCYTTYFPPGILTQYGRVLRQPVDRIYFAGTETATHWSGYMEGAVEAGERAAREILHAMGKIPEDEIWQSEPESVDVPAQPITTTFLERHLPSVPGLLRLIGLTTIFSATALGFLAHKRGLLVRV
Kind of data set: Reversibility of hMAO-B inhibition by dialysis. It is filed as biochemical. As to conditions: for Reversibility of hMAO-B inhibition: dialysis; for Relative activity dialyzed (AD), hMAO-B: inhibitor at ~2 times IC50, after dialysis; for Relative activity undialyzed (AU), hMAO-B: inhibitor at ~2 times IC50, before dialysis. The method, then:
(§5) After preincubating compounds or reference inhibitors with hMAO-A and hMAO-B, residual activities for undialyzed and dialyzed samples were measured. Relative values for undialyzed (AU) and dialyzed (AD) activities were then calculated and compared with non-inhibitor treated controls. Reversibilities were determined by comparing the AU and AD values of inhibitors with those of references.

Data set [7] deals with T5, hMAO-A (Homo sapiens, UniProt P21397).
T5 construct: purchased Sigma-Aldrich
T5 sequence (P21397 1-527): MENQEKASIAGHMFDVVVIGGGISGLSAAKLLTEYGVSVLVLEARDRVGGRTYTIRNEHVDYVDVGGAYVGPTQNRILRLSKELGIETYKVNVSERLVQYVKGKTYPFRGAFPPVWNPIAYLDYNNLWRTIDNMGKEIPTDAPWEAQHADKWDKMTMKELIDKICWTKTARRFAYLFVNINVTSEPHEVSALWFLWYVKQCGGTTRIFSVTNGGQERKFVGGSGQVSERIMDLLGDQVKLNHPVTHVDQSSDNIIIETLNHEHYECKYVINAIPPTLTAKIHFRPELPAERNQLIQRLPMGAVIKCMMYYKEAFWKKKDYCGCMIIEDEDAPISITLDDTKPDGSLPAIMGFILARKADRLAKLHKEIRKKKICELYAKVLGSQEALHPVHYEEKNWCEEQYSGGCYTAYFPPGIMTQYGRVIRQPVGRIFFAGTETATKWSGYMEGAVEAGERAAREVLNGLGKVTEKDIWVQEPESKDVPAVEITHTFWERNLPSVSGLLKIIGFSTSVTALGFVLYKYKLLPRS
Kind of data set: biochemical. The following applies: for remaining activity at 10 µM: read-out: Residual Activity at 10 µM (%) hMAO-A. The method, then:
as §1
hMAO-A and -B activities were determined using a continuous spectrophotometric method, as described previously. […] AChE and BChE activities were assayed as described by Ellman et al., with slight modification. Reactions were performed using AChE and BChE in the 0.5 mL reaction mixtures including 0.5 mM substrate (ATCI and BTCI, respectively) and color reagent (DTNB). […] Reaction rates are expressed as changes in absorbance per min.. Inhibitory activities of AChE and BChE were measured after preincubating enzyme with inhibitors for 15 min before adding DTNB and each substrate.
Inhibitory types and Ki values were determined using Lineweaver-Burk plots and secondary plots of their slopes, respectively.

Data set [8] concerns the target T4, hMAO-B. Kind of data set: Kinetics of hMAO-B inhibition (Lineweaver-Burk and secondary plots). It is filed as biochemical. The following applies: for Inhibition type hMAO-B: Lineweaver-Burk plots; for Ki: secondary plots of Lineweaver-Burk slopes.
Data set [9] has as its target T4, hMAO-B. Kind of data set: biochemical. It is filed as biochemical. As to conditions: for SI: hMAO-B selectivity: IC50 of hMAO-A divided by IC50 of hMAO-B; for remaining activity at 10 µM: read-out: Residual Activity at 10 µM (%) hMAO-B. The method, then:
as §1, §2

Data set [10] in a line: Cytotoxicity, CCK-8 cell viability, SH-SY5Y. It is filed as cell-based, human. The following applies: human, 30 µM.
From the text: as §3, §4

Data set [11] concerns SH-SY5Y cells. Kind of data set: Cytotoxicity, CCK-8 cell viability, SH-SY5Y. It is filed as cell-based, human. As to conditions: neuroblastoma, 24 h.
From the text: as §3, §4

In data set [12] the target is T5, hMAO-A. Kind of data set: Reversibility of hMAO-A inhibition by dialysis. It is filed as biochemical. The method, then:
as §5

Data set [13] deals with T5, hMAO-A. Kind of data set: Kinetics of hMAO-A inhibition (Lineweaver-Burk and secondary plots). It is filed as biochemical. As for the experimental part:
The kinetics of MAO-A inhibition by 13 was also investigated as above, except at 0.0075–0.12 mM of substrate concentrations. Inhibitory types and Ki values were determined using Lineweaver-Burk plots and secondary plots of their slopes, respectively.

“And” between values parts separate entries of the source, which are not always exact repeats. Equal entries are not always repeated. “Also recorded” adds a separate entry of the source.

T3 sequence (O42275 24-633): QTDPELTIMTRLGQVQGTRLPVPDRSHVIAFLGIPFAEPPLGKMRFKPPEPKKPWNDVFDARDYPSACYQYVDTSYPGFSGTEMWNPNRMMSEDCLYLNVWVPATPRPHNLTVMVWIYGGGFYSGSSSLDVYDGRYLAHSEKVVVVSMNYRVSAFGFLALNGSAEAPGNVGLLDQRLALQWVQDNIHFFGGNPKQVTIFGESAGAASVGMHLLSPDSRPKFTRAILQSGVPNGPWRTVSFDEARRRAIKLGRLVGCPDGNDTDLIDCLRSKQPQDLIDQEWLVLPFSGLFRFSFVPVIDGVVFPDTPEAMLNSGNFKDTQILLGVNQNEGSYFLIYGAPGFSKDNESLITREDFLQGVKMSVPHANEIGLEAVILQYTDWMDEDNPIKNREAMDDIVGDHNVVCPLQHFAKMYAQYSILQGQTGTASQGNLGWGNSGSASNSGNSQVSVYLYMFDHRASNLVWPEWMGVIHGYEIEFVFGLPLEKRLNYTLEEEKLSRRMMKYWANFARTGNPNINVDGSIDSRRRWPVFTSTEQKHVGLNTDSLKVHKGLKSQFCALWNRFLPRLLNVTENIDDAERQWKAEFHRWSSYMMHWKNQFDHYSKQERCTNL
T1 sequence (P81908 whole entry): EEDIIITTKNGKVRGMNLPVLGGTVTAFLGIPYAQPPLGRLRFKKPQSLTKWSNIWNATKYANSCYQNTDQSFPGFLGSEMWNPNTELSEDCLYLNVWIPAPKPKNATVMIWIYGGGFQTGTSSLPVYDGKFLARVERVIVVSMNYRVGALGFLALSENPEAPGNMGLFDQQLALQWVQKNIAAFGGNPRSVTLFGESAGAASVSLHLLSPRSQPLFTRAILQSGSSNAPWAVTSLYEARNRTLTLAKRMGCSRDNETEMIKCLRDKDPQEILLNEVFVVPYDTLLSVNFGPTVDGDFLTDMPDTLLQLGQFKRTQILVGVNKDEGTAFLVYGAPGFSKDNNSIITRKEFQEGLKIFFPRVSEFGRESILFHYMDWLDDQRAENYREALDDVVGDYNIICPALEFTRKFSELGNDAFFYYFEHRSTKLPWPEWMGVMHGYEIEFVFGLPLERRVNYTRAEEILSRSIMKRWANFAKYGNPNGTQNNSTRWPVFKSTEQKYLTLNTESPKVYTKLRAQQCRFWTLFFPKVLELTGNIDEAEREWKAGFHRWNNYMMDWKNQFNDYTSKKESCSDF

Regarding `COc1ccc2c(c1)OC1c3ccc(O)cc3OCC21` (stereo not drawn) [Compound 8, 3-hydroxy-9-methoxypterocarpan], the remaining activity at 10 µM in data set [1] is 98.4 ± 1%. Further, the remaining activity at 10 µM in data set [2] is 111.4 ± 0.52%. Moreover, the “Effect on viability of MDCK cells” value in data set [3] was “non-toxicity; also recorded: no effects on the viabilities”. Moreover, in data set [4], the remaining activity at 10 µM came out at 80.6 ± 2.62%. Further, in data set [5], the “Effect on viability of HL-60 cells” value is given as “non-toxicity; also recorded: no effects on the viabilities”. Besides, in data set [6], the “Reversibility of hMAO-B inhibition” value is “reversible inhibitor”; the “Relative activity dialyzed (AD), hMAO-B” value was 72.7%; the “Relative activity undialyzed (AU), hMAO-B” value came out at 29.8%. Also, in [7], inhibition was half-maximal at 19900 ± 850 nM (IC50) and the remaining activity at 10 µM is 64.18 ± 0.53%. Further, in data set [8], the “Inhibition type hMAO-B” value is on record as “competitive inhibitor” and the Ki is 197 ± 4 nM. In [9], the midpoint of inhibition, the IC50, lay at 450 ± 32 nM; the SI turned out to be 44.2; the remaining activity at 10 µM is 4.17 ± 0.84%. Moreover, the “times higher hMAO-B inhibitory activity than 13” value in data set [9] (3-OH of 8 versus 3-OCH3 of 13) was determined as 1.6 times. In data set [9] (versus maackiain IC50 of ref 36), the “times higher hMAO-B inhibition than maackiain” value came out at 1.5 times. The compound further yielded a viability at 24 h, 30 µM in data set [10] (SH-SY5Y cells) of 74%. Besides, the “Toxicity to SH-SY5Y cells” value in [11] is “moderate toxicity”.
As to `COc1ccc2c(c1)O[C@H]1c3ccc(OC)cc3OC[C@@H]21` [Compound 13, 3,9-dimethoxypterocarpan], the remaining activity at 10 µM in [1] was 88.5 ± 1.96%. The “Reversibility of hMAO-A inhibition” value in data set [12] (dialysis) is “reversible inhibitor”. In addition, the “Relative activity dialyzed (AD), hMAO-A” value in data set [12] (inhibitor at ~2 times IC50, after dialysis) is given as 75.8%. Besides, the “Relative activity undialyzed (AU), hMAO-A” value in [12] (inhibitor at ~2 times IC50, before dialysis) is listed as 25.4%. For the same compound, the remaining activity at 10 µM in [2] worked out at 101.48 ± 0.01%. Besides, the “Effect on viability of MDCK cells” value in data set [3] is given as “non-toxicity; also recorded: no effects on the viabilities”. Further, the remaining activity at 10 µM in data set [4] is 81 ± 2.44%. The “Effect on viability of HL-60 cells” value in [5] is listed as “non-toxicity; also recorded: no effects on the viabilities”. Also, in data set [6], the “Reversibility of hMAO-B inhibition” value is “reversible inhibitor”; the “Relative activity dialyzed (AD), hMAO-B” value is 73.5%; the “Relative activity undialyzed (AU), hMAO-B” value is 32.0%. Also, in data set [7], the IC50 worked out at 1490 ± 21 nM and the remaining activity at 10 µM was 11.6 ± 2.6%. In data set [13] (Lineweaver-Burk plots), the “Inhibition type hMAO-A” value was “competitive inhibitor”. In data set [13] (secondary plots of Lineweaver-Burk slopes), this compound registered a Ki of 617 ± 23 nM. Moreover, in data set [8], the “Inhibition type hMAO-B” value is “competitive inhibitor”; the inhibition constant (Ki) is 210 nM and 212 nM. For the same compound, in data set [9], the IC50 turned out to be 720 ± 28 nM, the SI came to 2.07 and the remaining activity at 10 µM was 4.05 ± 1.91%. For the same compound, the “times higher hMAO-B inhibitory activity than 12” value in data set [9] (9-OCH3 of 13 versus 8,9-methylenedioxy of 12) worked out at 4.7 times. Also, in data set [10] (SH-SY5Y neuroblastoma cells), the viability at 24 h, 30 µM was 71.1%. Further, in [11], the “Toxicity to SH-SY5Y cells” value is on record as “moderate toxicity”.

The IC50 is the midpoint of a concentration-inhibition curve. High values mean lower potency, low ones higher potency. What is called Ki is the equilibrium dissociation constant of an inhibitor or competing ligand from its target. Low readings indicate higher affinity, high ones lower affinity. Broadly, the viability is the share of living cells, or the viability signal relative to a control. Read a low viability as more harm to the cells.
